Test results published in publication PMC7037732, “Synthesis of Combretastatin A-4 and 3′-Aminocombretastatin A-4 derivatives with Aminoacid Containing Pendants and Study of their Interaction with Tubulin and as Downregulators of the VEGF, hTERT and c-Myc Gene Expression” (Molecules, 2020).
Values joined by “and” are separate entries in the source; they are usually repeats but may differ in a detail not shown here. Equal values may be shown once.

Tests used:
[1] = tested on: A-549 (human pulmonary adenocarcinoma); assay: Inhibition of cell proliferation (MTT), A-549; format: cell-based; settings: Homo sapiens, A549, 48 h, 48 h of treatment (footnote), average ±SD of three experiments
In short: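 Antiproliferative activity against A-549 human pulmonary adenocarcinoma cells was measured by MTT assay. Cells were seeded at 25,000/mL in 96-well plates, cultured 24 h, then exposed to compounds at various concentrations. MTT (20 µL, 5 mg·mL^−1) was added for 2 h at 37 °C, formazan dissolved in 200 µL DMSO, and absorbance read at 540 nm. IC50 values came graphically from three independent experiments.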

[2] = tested on: MCF-7 (breast adenocarcinoma); assay: Inhibition of cell proliferation (MTT), MCF-7; format: cell-based, human; settings: 48 h of treatment (footnote), average ±SD of three experiments
purified tubulin = assay: Critical concentration (CrC) for the assembly of purified tubulin in GAB; format: biochemical; settings: compound 27.5 μM, tubulin 25 μM, glycerol (GAB) and GTP assembly buffer; control 7.9 ± 1.2
Method: The effect on the self-assembly of tubulin was determined by measuring the critical concentration (CrC).

c-Myc gene = c-Myc gene expression by RT-qPCR in HT-29 cells; format: cell-based, human
Method: The effect on the expression of VEGF, hTERT and c-Myc genes has been studied for CA-4 and its derivatives that show selectivity indexes higher than 0.9 on the HT-29 cell line. The studied derivatives, together with the concentrations to which they have been tested, are CA-4 (15 μM); 4.1 (Gly, 5 μM); 4.5 (L-Pro, 25 μM); 4.9 (L-Met, 25 μM); 6.2 (D-Leu, 25 μM); 6.3 (D-Phe, 25 μM); 6.4 (D-Pro, 25 μM) and 6.5 (D-Ser, 10 μM). The expression of the genes was determined by RT-qPCR methodology, as described in the Materials and Methods section.
As regards AmCA-4 derivatives, the effect on the expression of the VEGF, hTERT and c-Myc genes has been studied on those that show IC50 in the low nanomolar range on the HT-29 cell line and/or on compounds whose selectivity indexes with respect to this cell line are higher than 1. The studied compounds, together with the concentrations to which they have been tested, are: CA-4 (15 μM), AmCA-4 (15 nM), 7.1 (7 nM), 7.2 (1.5 nM), 7.3 (4 nM), 7.4 (15 nM), 7.5 (2 nM), 7.7 (7 nM), 7.8 (15 nM), 7.9 (30 nM), 8.1 (7 nM), 8.2 (3 nM), 8.3 (10 nM), 8.4 (1.5 nM), 8.5 (4 nM), 8.7 (7 nM), 8.8 (3 nM) and 8.9 (4 nM).
HT-29 cells at 70–80% confluence were collected, and 1.5 × 10^5 cells were placed in a six-well plate in 1.5 mL of the medium. After 24 h, cells were incubated with the corresponding compounds for 48 h. Cells were collected, and the total cellular RNA from the HT-29 cells was isolated using an Ambion RNA Extraction Kit, according to the manufacturer’s instructions. The cDNA was synthesized by MMLV-RT with […] of extracted RNA and oligo(dT)15, according to the manufacturer’s instructions. Genes were amplified by a thermal cycler and StepOnePlus™ TaqMan® probes. TaqMan® Gene Expression Master Mix Fast, containing the appropriate buffer for the amplification conditions, dNTPs, thermostable DNA polymerase enzyme and a passive reference probe, was used. To amplify each of the genes, the predesigned primers sold by Life Technologies TaqMan® Gene Expression Assays Hs99999903-m1 (β-actin), Hs00900055-m1 (VEGF), Hs00972646-m1 (hTERT) and Hs00153408-m1 (c-Myc) were used.

[3] = Homo sapiens, MCF7, 48 h, Table 2
[4] = Homo sapiens, MCF7, 48 h, Table 1
[5] = Homo sapiens; HT-29, 48 h, 25 μM; control 100
[6] = HT-29, 48 h; discussion; concentration per compound
[7] = Homo sapiens, HT-29, 48 h, 25 μM, control 100
[8] = Homo sapiens, HT-29, 48 h, 7 nM, control 100
[9] = Homo sapiens, HT-29, 48 h, 4 nM, control 100

Structure (SMILES) | IC50 ([1]; Table 2) [nM] | IC50 [2, 3] [nM] | CrC (critical concentration) (purified tubulin) | IC50 ([1]; Table 1) [nM] | also measured
COc1ccc(/C=C\c2cc(OC)c(OC)c(OC)c2)cc1N [AmCA-4, 3′-aminocombretastatin A-4] | 117 ± 7 | 8 ± 1 | 23 ± 3 µM |  | mrna remaining at 0.015 µM (c-Myc gene; Homo sapiens; HT-29, 48 h, 15 nM; control 100): 58%
COc1ccc(/C=C\c2cc(OC)c(OC)c(OC)c2)cc1O [CA-4, combretastatin A-4] |  |  | 21.5 µM and 21.5 ± 0.8 µM | 428 ± 4 | IC50 ([2]; Homo sapiens, MCF7, Table 1): 1000 ± 200 nM; mrna remaining at 15 µM (c-Myc gene; Homo sapiens; HT-29, 48 h, 15 μM; control (DMSO) 100; normalized to β-actin): 35%
COc1ccc(/C=C\c2cc(OC)c(OC)c(OC)c2)cc1OCC(=O)NCC(=O)O [Compound 4.1] |  |  | 9.3 ± 0.4 µM | 24000 ± 4000 | IC50 [2, 4]: 6000 ± 1000 nM; mrna remaining at 5 µM (c-Myc gene; Homo sapiens, HT-29, 48 h, 5 μM, control 100): 62%
COc1ccc(/C=C\c2cc(OC)c(OC)c(OC)c2)cc1OCC(=O)N[C@H](C(=O)O)C(C)C [Compound 4.2] |  |  | 9.3 ± 0.3 µM | 17000 ± 2000 | IC50 ([2]; Homo sapiens, MCF7, Table 1): 7000 ± 1000 nM; mrna remaining at 25 µM (c-Myc gene; [5]): 71%
COc1ccc(/C=C\c2cc(OC)c(OC)c(OC)c2)cc1OCC(=O)N[C@@H](CCSC)C(=O)O [Compound 4.9] |  |  | 8.6 ± 0.4 µM | > 300000 | IC50 [2, 4]: 13000 ± 2000 nM; downregulation of c-Myc gene expression (c-Myc gene; [6]): more than 55%; mrna remaining at 25 µM (c-Myc gene; [7]): 37%
COc1ccc(/C=C\c2cc(OC)c(OC)c(OC)c2)cc1OCC(=O)N[C@H](CC(C)C)C(=O)O [Compound 6.2] |  |  | 11 ± 3 µM | 68000 ± 1000 | IC50 [2, 4]: 25000 ± 2000 nM; mrna remaining at 25 µM (c-Myc gene; [7]): 68%
COc1ccc(/C=C\c2cc(OC)c(OC)c(OC)c2)cc1OCC(=O)N[C@H](Cc1ccccc1)C(=O)O [Compound 6.3] |  |  | 9.2 ± 0.4 µM | 60000 ± 4000 | IC50 ([2]; Homo sapiens, MCF7, Table 1): 43000 ± 3000 nM; mrna remaining at 25 µM (c-Myc gene; [5]): 55%
COc1ccc(/C=C\c2cc(OC)c(OC)c(OC)c2)cc1OCC(=O)N1CCC[C@@H]1C(=O)O [Compound 6.4] |  |  | 10 ± 3 µM | 95000 ± 14000 | IC50 [2, 4]: 55000 ± 13000 nM; mrna remaining at 25 µM (c-Myc gene; [7]): 81%
COc1ccc(/C=C\c2cc(OC)c(OC)c(OC)c2)cc1OCC(=O)N[C@H](CO)C(=O)O [Compound 6.5] |  |  | 9.25 ± 0.16 µM | > 150000 | IC50 [2, 4]: 12000 ± 1000 nM; mrna remaining at 10 µM (c-Myc gene; Homo sapiens, HT-29, 48 h, 10 μM, control 100): 94%
COc1ccc(/C=C\c2cc(OC)c(OC)c(OC)c2)cc1NC(=O)CNC(=O)OCC1c2ccccc2-c2ccccc21 [Compound 7.1] | 186 ± 11 | 4.8 ± 0.5 | 11 ± 4 µM |  | mrna remaining at 0.007 µM (c-Myc gene; [8]): 58%
COc1ccc(/C=C\c2cc(OC)c(OC)c(OC)c2)cc1NC(=O)[C@H](Cc1ccccc1)NC(=O)OCC1c2ccccc2-c2ccccc21 [Compound 7.5] | 270 ± 50 | 14 ± 4 | 8.1 ± 1.6 µM |  | downregulation of c-Myc gene expression (c-Myc gene; [6]): more than 60%; mrna remaining at 0.002 µM (c-Myc gene; Homo sapiens, HT-29, 48 h, 2 nM, control 100): 40%
COc1ccc(/C=C\c2cc(OC)c(OC)c(OC)c2)cc1NC(=O)[C@H](CCSC)NC(=O)OCC1c2ccccc2-c2ccccc21 [Compound 7.9] | 407 ± 23 | 5.1 ± 0.3 | 7.1 ± 0.4 µM |  | mrna remaining at 0.03 µM (c-Myc gene; Homo sapiens, HT-29, 48 h, 30 nM, control 100): 61%
COc1ccc(/C=C\c2cc(OC)c(OC)c(OC)c2)cc1NC(=O)CN [Compound 8.1] | 400 ± 70 | 9 ± 4 | 10.2 ± 1.8 µM |  | mrna remaining at 0.007 µM (c-Myc gene; [8]): 54%
COc1ccc(/C=C\c2cc(OC)c(OC)c(OC)c2)cc1NC(=O)[C@H](C)N [Compound 8.2] | 611 ± 16 | < 5 | 13.9 ± 1.5 µM |  | IC50 ([2]; Table 2): 4.8 ± 0.5 nM; mrna remaining at 0.003 µM (c-Myc gene; Homo sapiens, HT-29, 48 h, 3 nM, control 100): 97%
COc1ccc(/C=C\c2cc(OC)c(OC)c(OC)c2)cc1NC(=O)[C@@H](N)C(C)C [Compound 8.3] | 490 ± 100 | 13 ± 2 | 9.3 ± 0.5 µM |  | mrna remaining at 0.01 µM (c-Myc gene; Homo sapiens, HT-29, 48 h, 10 nM, control 100): 62%
COc1ccc(/C=C\c2cc(OC)c(OC)c(OC)c2)cc1NC(=O)[C@@H](N)Cc1ccccc1 [Compound 8.5] | 141 ± 3 |  | 9.1 ± 0.9 µM |  | mrna remaining at 0.004 µM (c-Myc gene; [9]): 74%
COc1ccc(/C=C\c2cc(OC)c(OC)c(OC)c2)cc1NC(=O)[C@@H](N)C(C)O (stereo partly shown) [Compound 8.7] | 410 ± 40 | 12 ± 1 | 12.3 ± 0.6 µM |  | downregulation of c-Myc gene expression (c-Myc gene; [6]): more than 60%; mrna remaining at 0.007 µM (c-Myc gene; [8]): 37%
COc1ccc(/C=C\c2cc(OC)c(OC)c(OC)c2)cc1NC(=O)[C@@H](N)CCSC [Compound 8.9] | 90 ± 30 | < 5 | 8.5 ± 1.2 µM |  | IC50 ([2]; Table 2): 3.4 ± 1.2 nM; mrna remaining at 0.004 µM (c-Myc gene; [9]): 70%
